{"source": "patent US7781565B2", "about": "(priority 2006, dated 2010)", "note": "“Also recorded” adds a separate entry of the source."}
{"test_system": "NCI-60 cell lines", "format": "cell-based, human"}
{"substance": "GGGRRAL", "Cell Line (NCI-60 cell line the peptide and its motif are associated with)": "PC3 Prostate"}
{"substance": "GGGRSGV", "Cell Line with which the peptide (and its tripeptide motif) is associated": "H226-Lung"}
{"substance": "GGGSDGV", "Cell Line with which the peptide (and its tripeptide motif) is associated": "CCRF-CEM Leukemia"}
{"substance": "GGGSGGG", "Cell Line (NCI-60 cell line the peptide and its motif are associated with)": "OVCAR-4 Ovarian"}
{"substance": "GGGSWLI", "Cell Line with which the peptide (and its tripeptide motif) is associated": "EKVX-Lung"}
{"substance": "GGLEQDG", "Cell Line the peptide is associated with (peptide recovered from phage library selection on this NCI-60 cell line)": "SN12C Renal"}
{"substance": "GGLKVWR", "Cell Line (NCI-60 cell line the peptide and its motif are associated with)": "PC3 Prostate"}
{"substance": "GGLMPRY", "Cell Line the peptide is associated with (peptide recovered from phage library selection on this NCI-60 cell line)": "BT-549 Breast"}
{"substance": "GGLPVQM", "Cell Line (NCI-60 cell line the peptide and its motif are associated with)": "PC3 Prostate"}
{"substance": "GGLRGVR", "Cell Line with which the peptide (and its tripeptide motif) is associated": "A549-Lung"}
{"substance": "GGLRVGG", "Cell Line (NCI-60 cell line the peptide and its motif are associated with)": "PC3 Prostate"}
{"substance": "GGLSECV", "Cell Line with which the peptide (and its tripeptide motif) is associated": "H226-Lung"}
{"substance": "GGLSNVV", "Cell Line (NCI-60 cell line the peptide is associated with)": "SW620-Colon"}
{"substance": "GGLSPHR", "Cell Line with which the peptide (and its tripeptide motif) is associated": "H460-Lung"}
{"substance": "GGLSRSN", "Cell Line (NCI-60 cell line the peptide is associated with)": "SF-268 CNS"}
{"substance": "GGLSVDL", "Cell Line with which the peptide (and its tripeptide motif) is associated": "EKVX-Lung"}
{"substance": "GGLVKRL", "Cell Line (NCI-60 cell line the peptide and its motif are associated with)": "SK-MEL-2 Melanoma"}
{"substance": "GGMNGRL", "Cell Line (NCI-60 cell line the peptide is associated with)": "HT-29 Colon"}
{"substance": "GGPGLVM", "Cell Line (NCI-60 cell line the peptide and its motif are associated with)": "OVCAR-4 Ovarian"}
{"substance": "GGRAIGA", "Cell Line with which the peptide (and its tripeptide motif) is associated": "Hop-92-Lung"}
{"substance": "GGRCGAE", "Cell Line the peptide is associated with (peptide recovered from phage library selection on this NCI-60 cell line)": "BT-549 Breast"}
{"substance": "GGRELKA", "Cell Line (NCI-60 cell line the peptide and its motif are associated with)": "PC3 Prostate"}
{"substance": "GGRLLRA", "Cell Line (NCI-60 cell line the peptide and its motif are associated with)": "DU-145 Prostate"}
{"substance": "GGRLRAV", "Cell Line (NCI-60 cell line the peptide is associated with)": "SNB-19 CNS; also recorded: SF-539 CNS"}
{"substance": "GGRPTVT", "Cell Line the peptide is associated with (peptide recovered from phage library selection on this NCI-60 cell line)": "HS 578 T Breast"}
{"substance": "GGRPVER", "Cell Line the peptide is associated with (peptide recovered from phage library selection on this NCI-60 cell line)": "UO31 Renal"}
{"substance": "GGRRGTS", "Cell Line the peptide is associated with (peptide recovered from phage library selection on this NCI-60 cell line)": "MCF-7 Breast"}
{"substance": "GGRRVVV", "Cell Line the peptide is associated with (peptide recovered from phage library selection on this NCI-60 cell line)": "NCI/ADR-RES Breast"}
{"substance": "GGRSKKV", "Cell Line (NCI-60 cell line the peptide is associated with)": "SF-268 CNS"}
{"substance": "GGRSQEG", "Cell Line the peptide is associated with (peptide recovered from phage library selection on this NCI-60 cell line)": "UO31 Renal"}
{"substance": "GGRSSHP", "Cell Line with which the peptide (and its tripeptide motif) is associated": "Molt-4-Leukemia"}
{"substance": "GGRSWVN", "Cell Line with which the peptide (and its tripeptide motif) is associated": "RPMI-8226-Leukemia"}
{"substance": "GGRVLGQ", "Cell Line (NCI-60 cell line the peptide and its motif are associated with)": "OVCAR-4 Ovarian"}
{"substance": "GGRVRGG", "Cell Line (NCI-60 cell line the peptide and its motif are associated with)": "OVCAR-4 Ovarian"}
{"substance": "GGSALFG", "Cell Line (NCI-60 cell line the peptide is associated with)": "HT-29 Colon"}
{"substance": "GGSAWWG", "Cell Line (NCI-60 cell line the peptide and its motif are associated with)": "DU-145 Prostate"}
{"substance": "GGSFSGL", "Cell Line with which the peptide (and its tripeptide motif) is associated": "A549-Lung"}
{"substance": "GGSGELG", "Cell Line with which the peptide (and its tripeptide motif) is associated": "H23-Lung"}
{"substance": "GGSGIGS", "Cell Line with which the peptide (and its tripeptide motif) is associated": "Hop-92-Lung"}
{"substance": "GGSIDCC", "Cell Line the peptide is associated with (peptide recovered from phage library selection on this NCI-60 cell line)": "SN12C Renal"}
{"substance": "GGSKGSA", "Cell Line (NCI-60 cell line the peptide and its motif are associated with)": "UACC 257 Melanoma"}
{"substance": "GGSLKWV", "Cell Line (NCI-60 cell line the peptide and its motif are associated with)": "SK-MEL-2 Melanoma"}
{"substance": "GGSPGVW", "Cell Line (NCI-60 cell line the peptide and its motif are associated with)": "SK-MEL-5 Melanoma"}
{"substance": "GGSQCDT", "Cell Line with which the peptide (and its tripeptide motif) is associated": "K-562-Leukemia"}
{"substance": "GGSRAAE", "Cell Line with which the peptide (and its tripeptide motif) is associated": "H322-Lung"}
{"substance": "GGSRGYR", "Cell Line the peptide is associated with (peptide recovered from phage library selection on this NCI-60 cell line)": "UO31 Renal"}
{"substance": "GGSRLLL", "Cell Line with which the peptide (and its tripeptide motif) is associated": "RPMI-8226-Leukemia"}
{"substance": "GGSRNRW", "Cell Line with which the peptide (and its tripeptide motif) is associated": "H226-Lung"}
{"substance": "GGSSEFR", "Cell Line with which the peptide (and its tripeptide motif) is associated": "Hop-92-Lung"}
{"substance": "GGSSLDA", "Cell Line (NCI-60 cell line the peptide is associated with)": "HCT-116 Colon"}
{"substance": "GGSTVPQ", "Cell Line (NCI-60 cell line the peptide and its motif are associated with)": "OVCAR-8 Ovarian"}
{"substance": "GGSVEGQ", "Cell Line the peptide is associated with (peptide recovered from phage library selection on this NCI-60 cell line)": "ACHN Renal"}
{"substance": "GGSVRHV", "Cell Line with which the peptide (and its tripeptide motif) is associated": "RPMI-8226-Leukemia"}
